Tests used:
[1] = tested on: Limulus polyphemus ceramidase; assay: Ceramidase activity of Limulus polyphemus serum / purified ceramidase on ceramide substrates; type: biochemical
Method: A 10 μl of serum obtained by centrifugation of Limulus polyphemus blood was allowed to undergo 18 hours of reaction at 37° C. with 10 μl of 50 mM acetate buffer (pH 5.0) containing 1 nmol of NBD ceramide prepared in Example 21 and 0.5% Triton X-100. After completion of the reaction, the reaction solution was developed on thin layer chromatography (developing solvent: chloroform/methanol/25% liquid ammonia=90/20/0.5 by volume) and detected under an ultraviolet ray lamp.
In order to confirm that the ceramidase activity found in the Limulus polyphemus serum is really a ceramidase-derived activity, the ceramidase was purified to find that it was an acidic ceramidase having an optimum pH of 4.5 and a molecular weight of about 205 kDa when measured by a gel filtration method.

[2] = tested on: ceramidase in B16 cells; assay: Measurement of ceramidase activity in B16 cells with labeled ceramide substrates; type: biochemical; details: B16 cell suspension, 50 μg protein, 0.5% Triton X-100, 37° C. 3 or 6 hours; FIG. 16
Method: Measurement of ceramidase activity in B16 cells using radioisotope labeled ^14C ceramide (C12−^14C-Cer) and fluorescent sphingolipid derivative NBD ceramide (C12-NBD-Cer) as the substrate:
A cell suspension was prepared by suspending 6×10^6 of B16 cells in 200 μl of 10 mM phosphate buffer. The amount of the protein was determined using MicroBCA™ protein assay reagent (manufactured by Pierce).
Under acidic condition in 10 μl of 50 MM acetate buffer (pH 4.0) containing 10 μl of the cell suspension (diluted to a protein content of 50 μg), 200 pmol of C12-NBD-Cer obtained in Example 21 or 100 pmol of C12−^14C-Cer obtained using lauric acid instead of palmitic acid used in Example 20, as the substrate, and 0.5% Triton X-100. […]
Each of the samples was developed on thin layer chromatography (developing solvent, chloroform/methanol/25% liquid ammonia =90/20/0.5 by volume), and the released ^14C fatty acid was determined using BAS 1000 Imaging Analyzer (manufactured by Fuji Photo Film) to calculate the reaction ratio. Also, the released NBD fatty acid was determined using Chromatoscanner CS 9000 (manufactured by Shimadzu Corporation), and the reaction ratio was calculated.

[3] = tested on: SCDase derived from the genus Pseudomonas; assay: Fatty acid exchange reaction on various acceptors by SCDase; type: biochemical; details: 1 nmol [1-14C] stearic acid, 1 nmol sphingolipid, 30 μU SCDase, acetate buffer pH 6.0, 0.8% Triton X-100, overnight 37° C., galactosyl ceramide = 100
Method: A 10 μl portion of 50 mM acetate buffer (pH 6.0) containing 1 nmol [1−^14C] stearic acid, 1 nmol sphingolipid, 0.8% Triton X-100 and 30 μU SCDase derived from the genus Pseudomonas was allowed to react overnight at 37° C.
The thus obtained reaction solution was developed on thin layer chromatography and exposed to an imaging plate to carry out determination of the reaction product by BAS 1000 Imaging Analyzer (manufactured by Fuji Photo Film).

[4] = tested on: Shewanella alga NS-589; assay: Conversion of sphingomyelin into sphingosylphosphorylcholine by culture of Shewanella alga NS-589; type: cell-based; details: synthetic medium, sphingomyelin 0.1%, 30° C. shaking 2 days, TLC
Method: Shewanella alga NS-589 was inoculated into 200 ml of a synthetic medium (dipotassium hydrogenphosphate 0.05%, ammonium chloride 0.05%, sphingomyelin 0.1%, sodium taurodeoxycholate 0.1%, sodium chloride 2%, 2,6-O-dimethyl-β-cyclodextrin 0.1%; pH 7.4) and incubated therein at 30° C. under shaking for 2 days.
Then the cells were eliminated by centrifuging the culture medium to obtain the culture supernatant which was then analyzed by thin layer chromatography. […] This culture medium was added to a C18 reversed phase column [Preoperative C18 125A (manufactured by Millipore), packing: 30 g, column diameter: 30 mm, open column]. After desalting and washing with 300 ml of water, the column was eluted with 300 ml of methanol and 300 ml of chloroform/methanol=1/1 (by volume). Then the sphingosylphosphorylcholine was eluted into the methanol fraction. After removing the solvent in the sphingosylphosphorylcholine fraction with a rotary evaporator, the residue was added to a silica gel 60 column (manufactured by Merck) and fractionated with chloroform/methanol/water=5/4/1 (by volume). Further, the solvent in the sphingosylphosphorylcholine fraction thus obtained was removed with a rotary evaporator and the residue was freeze-dried. Thus 47.6 mg of purified sphingosylphosphorylcholine could be obtained.

[5] = tested on: crude SCDase; assay: Substrate specificity of crude SCDase (culture supernatant) from Shewanella alga NS-589; type: biochemical; details: SCDase produced by Shewanella alga NS-589
Source text: Acting on acidic glycolipids (GM1, GM2, GD1a, GD1b, sialosyl paragloboside, etc.), neutral glycolipids (lactosyl ceramide, Gb4, Gb5, etc.), sulfated glycolipids (sulfatide, etc.) and sphingomyelin which is a sphingophospholipid, thus forming the corresponding lysosphingolipid and fatty acid in each case.
The substrate specificity was examined as follows. Shewanella alga NS-589 was inoculated into a synthetic medium (dipotassium hydrogenphosphate 0.05%, ammonium chloride 0.05%, sphingomyelin 0.1%, sodium taurodeoxycholate 0.1%, sodium chloride 2%, 2,6-O-dimethyl-β-cyclodextrin 0.1%; pH 7.4). Two days after shaking cultivation at 30° C., the strain was removed to obtain a supernatant by centrifuge. A 50 mM acetate buffer ([…]; pH 6.0) containing 3 μl of the supernatant and 1.6% Triton X-100 was allowed to react with 5 μl of 1.2 mM of each of sphingolipids shown in Table 2 at 37° C. for 16 hours, and then the resulting mixture was analyzed with a thin layer chromatography.
The digestion ratios of various substrates by a crude SCDase obtained from Shewanella alga NS-589.

[6] = tested on: SCDase; assay: Substrate specificity (hydrolysis) of purified SCDase from Pseudomonas sp. TK-4; type: biochemical; details: 10 nmol sphingolipid, 2 milliunits enzyme, 37° C. 16 h, 20 mM sodium acetate buffer pH 5.0, 0.8% Triton X-100, TLC
Method: The enzyme activity of the SCDase is assayed in the following manner. To 10 μl of a substrate solution [50 mM acetate buffer solution (pH 6.0) containing 2 mM of asialo GM1 and 0.6% (w/v) of Triton X-100] is added 10 μl of an enzyme solution. After reacting at 37° C. for 30 minutes, the enzyme reaction is ceased by heating the mixture to 100° C. for 3 minutes. Then the reaction mixture is concentrated to dryness with a centrifugal concentrator. Then the obtained concentrate is dissolved in 10 μl of 50% methanol and placed on a TLC plate (silica gel 60; manufactured by Merck & Co., Inc.). After developing with chloroform/methanol/0.02% aqueous solution of CaCl2 (5/4/1 by volume), the sphingolipid is subjected to color development by the orcinol-sulfuric acid method. […] This spot is determined by using a TLC chromatoscanner (Shimadzu CS-9000, manufactured by Shimadzu Corporation) at a wavelength of 540 nm.
Sphingolipids (10 nmol each) were incubated at 37° C. for 16 h with 2 milliunits of the enzyme in 20 μl of 20 mM sodium acetate buffer, pH 5.0, containing 0.8% Triton X-100. The extent of hydrolysis was examined by TLC and calculated.

CCCCCCCCCCCCC/C=C/[C@@H](O)[C@H](CO)NC(=O)CCCCCCCCCCCNc1ccc([N+](=O)[O-])c2nonc12 [NBD ceramide]
Hydrolysis of substrate by Limulus polyphemus serum (ceramidase activity) ([1]; 1 nmol substrate, 10 μl serum, acetate buffer pH 5.0, 0.5% Triton X-100, 18 hours 37° C., TLC under UV): a newly formed NBD aminododecanoic acid was detected
Action of acidic ceramidase in B16 cells on substrate [2]: hardly
Action of alkaline ceramidase in B16 cells on substrate [2]: acts well

CCCCCCCCCCCCC/C=C/[C@@H](O)[C@H](CO)NC(=O)CCCCCCCCCCCCCCCCC [N-stearoylsphingosine (C18:0, d18:1), N-stearoylsphingosine]
Hydrolysis by purified Limulus polyphemus ceramidase (substrate preference) ([1]; purified ceramidase): most efficiently

Sphingomyelin
Relative activity (%) [3]: 2.9%
Sphingomyelin converted into sphingosylphosphorylcholine [4]: 80%
Substrate specificity: acting on the substrate, forming the corresponding lysosphingolipid and fatty acid [5]: Acting on
Digestion ratio (%) [6]: 28%

— patent publication US6821761B2, “Sphingolipid ceramide N-deacylase, methods for producing sphingolipids and sphingolipid derivatives, and sphingolipid ceramide N-deacylase gene” (Takara Bio, Inc., priority 1994, dated 2004)
